The test system of assay [1] is HCT-116. In words: Induction of DNA damage in human HCT116 cells assessed as G2/M checkpoint activation measured as reduction in mitotic index after 2 hrs by immunofluorescence assay. In kind it is functional.
In assay [2] the test system is HCT-116. In words: Antiproliferative activity against human HCT116 cells after 72 hrs by MTT assay. It is filed as functional, cell-based. Particulars: HCT-116, 72 h. In general terms: Tetrazolium assays rely on reduction of a dye to a coloured formazan, in cell work by metabolically active cells.
In assay [3] the test system is HeLa. The experiment in a line: Antiproliferative activity against human HeLa cells after 72 hrs by MTT assay. In kind it is functional, cell-based.
For assay [4], the system named is HT-29. The experiment in a line: cells. Particulars: Homo sapiens, HT-29, 72 h.
The test system of assay [5] is MCF7. In words: cells. Particulars: Homo sapiens, MCF7, 72 h.
Assay [6] has as its system A549. In words: cells. Particulars: Homo sapiens, A549, 72 h.
Description: Antiproliferative activity against human A549 cells after 72 hrs by MTT assay
In assay [7] the test system is HCT-116. In words: Induction of DNA damage in human HCT116 cells assessed as formation of marker ser-139 phosphorylated H2AX nuclear foci after 2 hrs by immunofluorescence assay. It is filed as functional, cell-based.
For assay [8], the system named is HCT-116. In words: Cell cycle arrest in human HCT116 cells assessed as accumulation at G2/M phase at IC50 after 24 hrs by propidium iodide staining-based FACS flow cytometric analysis (reference value: 11.54%). It is filed as functional.
Assay [9] has as its system HCT-116. In words: Cell cycle arrest in human HCT116 cells assessed as accumulation at S phase at IC50 after 24 hrs by propidium iodide staining-based FACS flow cytometric analysis (reference value: 25.39%). It is filed as functional. In general terms: A flow cytometer gives signals particle by particle.
Assay [10] relates to HCT-116. The experiment in a line: Cell cycle arrest in human HCT116 cells assessed as accumulation at G0/G1 phase at IC50 after 24 hrs by propidium iodide staining-based FACS flow cytometric analysis (reference value: 63.07%). It is filed as functional.
Assay [11] deals with Thymidylate synthase (Homo sapiens) (UniProt P04818). The experiment in a line: Inhibition of human recombinant His-tagged thymidylate synthase assessed as N5,N10-methylenetetrahydrofolate oxidation to dihydrofolate at 50 uM after 20 mins by UV spectrophotometric analysis relative to control.
Assay [12] deals with T1, Dihydrofolate reductase (Homo sapiens) (UniProt P00374).
T1 sequence (whole entry): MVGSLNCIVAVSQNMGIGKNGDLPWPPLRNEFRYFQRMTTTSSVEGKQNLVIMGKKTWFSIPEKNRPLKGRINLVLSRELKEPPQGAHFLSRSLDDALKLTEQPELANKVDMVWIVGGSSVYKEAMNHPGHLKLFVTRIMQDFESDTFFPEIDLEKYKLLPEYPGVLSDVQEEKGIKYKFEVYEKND
In words: Inhibition of human dihydrofolate reductase at 500 nM by spectrophotometric analysis relative to control.

For assay [13], the target named is T2, Dihydrofolate reductase (Homo sapiens, UniProt P00374).
T2 sequence (P00374 whole entry): T1 sequence (whole entry)
The experiment in a line: Inhibition of human dihydrofolate reductase by spectrophotometric analysis.

Assay [14] deals with Thymidylate synthase (Homo sapiens) (UniProt P04818). Particulars: 1 uM.
Description: Inhibition of human recombinant His-tagged thymidylate synthase assessed as N5,N10-methylenetetrahydrofolate oxidation to dihydrofolate at 1 uM after 20 mins by UV spectrophotometric analysis relative to control
In assay [15] the test system is HCT-116. The experiment in a line: Antiproliferative activity against human HCT116 cells at 20 uM after 72 hrs by MTT assay relative to control. In kind it is functional, cell-based. Particulars: HCT-116, 72 h.
Assay [16] has as its system HT-29. In words: Antiproliferative activity against human HT-29 cells at 20 uM after 72 hrs by MTT assay relative to control. It is filed as functional, cell-based. Particulars: HT-29, 72 h.
Assay [17] concerns HeLa. In words: Antiproliferative activity against human HeLa cells at 20 uM after 72 hrs by MTT assay relative to control. In kind it is functional, cell-based.
Assay [18] relates to MCF7. The experiment in a line: Antiproliferative activity against human MCF7 cells at 20 uM after 72 hrs by MTT assay relative to control. It is filed as functional, cell-based. Particulars: MCF7, 72 h.
Assay [19] relates to A549. In words: Antiproliferative activity against human A549 cells at 20 uM after 72 hrs by MTT assay relative to control. It is filed as functional, cell-based. Particulars: A549, 72 h.

Here are results for 24 compounds from ChEMBL document CHEMBL2385040, “Synthesis and antiproliferative activity of 4-substituted-piperazine-1-carbodithioate derivatives of 2,4-diaminoquinazoline” (Eur J Med Chem, 2013).

The structures appear in SMILES notation. The source made the active and inactive calls. The calls are words filed in the database; no cut-off is given here.

Chain of Thymidylate synthase (Homo sapiens) (P04818 2-313 limits assumed): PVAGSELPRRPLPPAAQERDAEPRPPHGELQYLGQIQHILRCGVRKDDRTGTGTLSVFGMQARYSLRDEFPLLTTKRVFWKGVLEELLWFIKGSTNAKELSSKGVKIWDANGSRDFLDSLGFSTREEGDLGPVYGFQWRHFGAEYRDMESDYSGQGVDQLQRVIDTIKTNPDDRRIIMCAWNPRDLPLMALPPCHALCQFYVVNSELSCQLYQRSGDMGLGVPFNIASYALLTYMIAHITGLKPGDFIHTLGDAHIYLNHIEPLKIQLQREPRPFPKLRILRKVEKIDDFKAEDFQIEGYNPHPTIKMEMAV

As to `CC[C@@]1(O)C(=O)OCc2c1cc1n(c2=O)Cc2cc3ccccc3nc2-1` [CAMPTOTHECIN], the Ratio in assay [1] is 0.64.

With `Nc1nc(N)c2cc(CSC(=S)N3CCN(c4ccc(Cl)cc4)CC3)ccc2n1`, the concentration for half-maximal inhibition (IC50) amounted to 7.38 µM in assay [2]; 6.99 µM in [3]; 7.48 µM in assay [4]; 4.88 µM in assay [5]; 5.21 µM in assay [6].

Take `Nc1nc(N)c2cc(CSC(=S)N3CCN(c4ncccn4)CC3)ccc2n1`: the IC50 in assay [2] is 5.84 µM; in [3] it was 4.36 µM; in assay [4], 4.72 µM; in [5] it was 4.19 µM; in assay [6], 4.01 µM.

As for `Cc1ccc(N2CCN(C(=S)SCc3ccc4nc(N)nc(N)c4c3)CC2)cc1`, the concentration for half-maximal inhibition (IC50) in [2] amounted to 5.51 µM; in [3], 2.13 µM; in assay [4] it was 3.02 µM; in assay [5], 2.48 µM; in assay [6], 2.19 µM.

Turning to `Nc1nc(N)c2cc(CSC(=S)N3CCN(c4ccc([N+](=O)[O-])cc4)CC3)ccc2n1`, the Ratio in assay [1] is reported as 0.67. The result in assay [7] was Active. Also, the Activity is 15.8% in assay [8], 39.46% in [9] and 44.74% in [10]. The inhibition stood at 14.1% in [11] and 29% in [12]. In addition, the half-maximal inhibitory concentration (IC50) amounted to 1.61 µM in assay [13]; 4.68 µM in [2]; 1.66 µM in assay [3]; 3.32 µM in assay [4]; 1.47 µM in [5]; 1.91 µM in assay [6].

With `Cc1ccc(N2CCN(C(=S)SCc3ccc4nc(N)nc(N)c4c3)CC2)c(C)c1`, the half-inhibitory concentration (IC50) in assay [2] turned out to be 4.07 µM; in assay [3], 3.19 µM; in assay [4], 2.97 µM; in assay [5], 3.12 µM; in [6] it was 3 µM.

Consider `Nc1nc(N)c2cc(CSC(=S)N3CCN(C4CCCCC4)CC3)ccc2n1`, for which the IC50 in assay [2] is 8.4 µM; in assay [3], 5.96 µM; in assay [4], 4.05 µM; in [5], 6.8 µM; in assay [6] it was 4.71 µM.

As to `Nc1nc(N)c2cc(CSC(=S)N3CCN(c4ccccc4F)CC3)ccc2n1`, the half-maximal inhibitory concentration (IC50) in assay [3] is 6.66 µM; in assay [4], 5.42 µM; in [5], 4.84 µM; in assay [6], 6.46 µM.

Take `Nc1nc(N)c2cc(CSC(=S)N3CCN(c4ccc(F)cc4)CC3)ccc2n1`: the Ratio in assay [1] was 0.45. The outcome in assay [7] was Active. For the same compound, the Activity is on record as 14.15% in assay [8], 39.22% in assay [9] and 46.63% in [10]. Also, the values for the inhibition in assay [11] and in assay [12] were 19.9% and 35%, respectively. Also, the concentration for half-maximal inhibition (IC50) in assay [13] was determined as 2.11 µM; in assay [2], 3.27 µM; in assay [3] it was 1.84 µM; in [4], 2.05 µM; in assay [5], 1.92 µM; in assay [6], 2.04 µM.

In the case of `Nc1nc(N)c2cc(CSC(=S)N3CCN(c4ccccn4)CC3)ccc2n1`, the 50% inhibitory concentration (IC50) in assay [2] stood at 5.96 µM; in [3], 5.09 µM; in [4] it was 6.2 µM; in assay [5], 5.11 µM; in [6], 3.96 µM.

With `Cc1nc(=O)c2cc(CN(C)c3ccc(C(=O)N[C@@H](CCC(=O)O)C(=O)O)s3)ccc2[nH]1`, the inhibition in assay [14] was determined as 94.2%.

Turning to `Nc1nc(N)c2cc(CSC(=S)N3CCN(c4ccccc4Cl)CC3)ccc2n1`, the IC50 in [2] was 5.49 µM; in assay [3] it was 4.05 µM; in assay [4] it was 3.9 µM; in assay [5] it was 3.19 µM; in assay [6], 3.61 µM.

With `Nc1nc(N)c2cc(CSC(=S)N3CCN(c4ccccc4)CC3)ccc2n1`, the IC50 in assay [2] is 4.12 µM; in assay [3], 2.84 µM; in assay [4], 2.76 µM; in [5], 2.95 µM; in assay [6], 2.97 µM.

Turning to `CC(=O)c1ccc(N2CCN(C(=S)SCc3ccc4nc(N)nc(N)c4c3)CC2)cc1`, the IC50 in assay [2] stood at 8.26 µM; in assay [3], 2.04 µM; in assay [4], 2.28 µM; in assay [5], 2.49 µM; in assay [6], 2.55 µM.

For the compound `CN1CCN(C(=S)SCc2ccc3nc(N)nc(N)c3c2)CC1`, the half-inhibitory concentration (IC50) in [15] was greater than 20 µM; in [16], greater than 20 µM; in assay [17] it was greater than 20 µM; in [18], greater than 20 µM; in [6], 9.2 µM.

For the compound `Nc1nc(N)c2cc(CSC(=S)N3CCN(Cc4ccccc4)CC3)ccc2n1`, the IC50 came to 4.91 µM in assay [2]; 8.35 µM in assay [3]; 8.49 µM in assay [4]; 8.46 µM in assay [5]; 3.31 µM in [6].

Consider `Cc1ccccc1N1CCN(C(=S)SCc2ccc3nc(N)nc(N)c3c2)CC1`, for which the IC50 in assay [2] turned out to be 11.8 µM; in assay [4], 2.95 µM; in [5], 4.23 µM; in assay [6], 3.92 µM.

As for `COc1ccc(N2CCN(C(=S)SCc3ccc4nc(N)nc(N)c4c3)CC2)cc1`, the Ratio in assay [1] came out at 0.76. For the same compound, the outcome in assay [7] was Active. Besides, the values for the Activity in assay [8], in assay [9] and in [10] were 14.29%, 33.34% and 52.36%, respectively. Besides, the results for the inhibition in [11] and in assay [12] were 15.2% and 24%, respectively. The IC50 worked out at 5.96 µM in assay [13]; 2.27 µM in assay [2]; 1.66 µM in assay [3]; 1.77 µM in assay [4]; 1.58 µM in assay [5]; 1.59 µM in assay [6].

Take `Nc1nc(N)c2cc(CSC(=S)N3CCN(c4ccc(F)cc4F)CC3)ccc2n1`: the IC50 in assay [2] was determined as 5.15 µM; in assay [3], 3.8 µM; in assay [4], 5.02 µM; in assay [5] it was 3.67 µM; in assay [6], 5.12 µM.

For `Nc1nc(N)c2cc(CSC(=S)N3CCN(c4ccc(Cl)c(Cl)c4)CC3)ccc2n1`, the concentration for half-maximal inhibition (IC50) in assay [2] was determined as 6.68 µM; in assay [3], 3.06 µM; in assay [4] it was 3.48 µM; in [5], 2.37 µM; in assay [6], 2.94 µM.

With `Nc1nc(N)c2cc(CSC(=S)N3CCN(c4ccccc4[N+](=O)[O-])CC3)ccc2n1`, the IC50 was found to be 5.52 µM in assay [2]; 4.88 µM in [3]; 4.31 µM in assay [4]; 4.35 µM in [5]; 4.36 µM in assay [6].

Turning to `Nc1nc(N)c2cc(CSC(=S)N3CCN(c4ccc(C(F)(F)F)cc4)CC3)ccc2n1`, the IC50 in assay [15] was greater than 20 µM; in assay [16] it was greater than 20 µM; in [17] it was greater than 20 µM; in [19], greater than 20 µM; in assay [5] it was 7.4 µM.

For the compound `O=c1[nH]cc(F)c(=O)[nH]1` [FLUOROURACIL], the outcome in assay [7] was inactive. Further, the Activity in [8] turned out to be 6.81%; in [9], 47.75%; in assay [10], 45.44%. Besides, the IC50 in [2] was 5.53 µM; in [3], 43.7 µM; in assay [4], 24.5 µM; in assay [5] it was 32.2 µM; in [6], 3.52 µM.

With `Nc1nc(N)c2cc(CSC(=S)N3CCN(c4ccc(O)cc4)CC3)ccc2n1`, the IC50 was 5.98 µM in assay [2]; greater than 20 µM in [16]; 5.18 µM in [3]; 5.09 µM in assay [5]; 4.21 µM in assay [6].

What is called IC50 is the concentration that inhibits the measured activity by half. Low values mean greater potency in that assay, high ones weaker potency in that assay. What is called inhibition is the drop in the measured response relative to a control, in per cent.
